In BigSolDB 2.1:

OCCCCCCO
solubility (mole fraction)
Details | 283.15 K | 288.15 K | 293.15 K | 298.15 K | 303.15 K
in DMAc | 0.0205 | 0.0298 | 0.0469 | 0.0688 | 0.0939
in methanol | 0.365 | 0.428 | 0.51 | 0.585 | 0.698
in n-butanol | 0.316 | 0.389 | 0.479 | 0.577 | 0.689
